The record followed here is patent US11691962B2 (eXIthera Pharmaceuticals, Inc., priority 2018, dated 2023).

≈ marks a conversion by molar mass, not a printed value. Where only a bound is given, the exact number is not on record here.

In data set [1] the test system is Trypsin. The data set is described as follows: Dose response assay for protease inhibitors: trypsin. The class given is biochemical. The conditions noted are these: selectivity, trypsin over Factor XIa. A digest of the protocol: (§1)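 Glp-Pro-Arg-AMC substrate (thrombin, trypsin) or Pro-Phe-Arg-AMC/Boc-Leu-Gly-Arg-AMC (Factor Xa), diluted to 100 μM, in 20 mM Hepes pH 7.4, 150 mM NaCl, 0.02% Tween 20; enzyme diluted to 0.5 nM before addition. Two-fold serial compound dilutions; kinetic reads at 30° C. Data yield IC50 and Kon.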

The nature of data set [2]: Metabolic stability in dog hepatocytes. In kind it is in vitro ADME. The conditions noted are these: pooled cryopreserved hepatocytes; beagle dog hepatocytes, 2 μM compound; read-out: Dog Hepatocyte Stability (t1/2). As for the experimental part: The following procedure was used to determine the stability of test compounds in beagle dog hepatocytes in a 96-well plate format. The test compounds, including the controls, imipramine and 7-ethoxycoumarin, were dissolved at 10 mM in DMSO, followed by further 5-fold dilution with DMSO to 2 mM. Pooled cryopreserved beagle dog hepatocytes were thawed and transferred into complete medium. Cells were gently centrifuged (700 rpm for 5 min) and the pellet rinsed with KHB (Krebs Henseleit buffer). Cells were resuspended, counted using Trypan blue, and adjusted to 1 million cells/mL in KHB buffer. The 2 mM compound stock solutions were diluted 10-fold with acetonitrile, followed by a further 50-fold dilution with KHB buffer. 200 μL of these compound solutions were transferred to 96-well polypropylene assay plates and an equal volume of the hepatocyte solution was added and mixed to initiate the reaction (final assay concentrations were 2 μM compound and 500,000 cells/mL). Assay plates were incubated at 37° C. in 5% CO2 with gentle agitation. 50 μL aliquots were removed at multiple time points out to 180 minutes and quenched with 6 volumes of cold acetonitrile (containing 250 ng/mL of carbutamide and chrysin as internal standards) to terminate the reaction and precipitate protein. Quenched samples were maintained on ice. The quenched samples were centrifuged at 2000×g (3100 rpm) for 10 minutes at 4° C. 50 μL aliquots of the supernatants were removed and diluted with 100 μL Milli-Q water to reduce the % organic content prior to bioanalysis by LC-MS/MS. Peak areas corresponding to the test compound were recorded. The compound remaining was calculated by comparing the peak area at each time point to time zero. Data were analyzed and results were calculated using Microsoft Excel 2010.

The target in data set [3] is Thrombin (Homo sapiens (Human), UniProt P00734). The data set is described as follows: Dose response assay for protease inhibitors: thrombin. The class given is biochemical. The note with it: selectivity, thrombin over Factor XIa. A digest of the protocol:
as §1

Data set [4] is described as follows: Plasma protein binding by equilibrium dialysis. In kind it is in vitro ADME. The conditions noted are these: both sexes, pH 7.4, pooled human plasma, 4 hours at 37° C., read-out: PPB (%). As for the experimental part:
The following procedure was used to determine the plasma protein binding of a test compound in pooled plasma from human (mixed gender) via equilibrium dialysis in a 96-well plate format. The dialysate compartment was loaded with phosphate-buffered saline (pH 7.4) and the sample side was loaded with plasma spiked with the test compound at a concentration of 10 μM. After loading, samples were covered and incubated for 4 hours at 37° C. After incubation, each compartment was sampled, diluted with acetonitrile/buffer and centrifuged. The supernatants were analyzed by HPLC-MS/MS. The analyte peak areas obtained from HPLC-MS/MS analysis of each sample were used to calculate protein binding according to the following equation (Equation 4):
[formula] where: AREAp=Peak area of analyte in protein matrix; AREAb=Peak area of analyte in buffer.
The amount measured in the plasma compartment included both free and bound drug, while that on the buffer side represented free drug only; the differences were used to calculate the percentage plasma protein bound. Three reference compounds were tested in each assay: acebutolol, quinidine and warfarin.
In general terms: In equilibrium dialysis only unbound substance equilibrates across the membrane.

Data set [5] is described as follows: Aqueous solubility in PBS by HPLC-UV/VIS. The class given is physicochemical. The note with it: phosphate buffered saline, aqueous buffer, kinetic from dmso stock; PBS pH 7.4, 2% DMSO, 24 h at room temperature. As for the experimental part: The following procedure was used to determine the aqueous solubility of a test compound in phosphate buffered saline (PBS-NaCl 137 mM, KCl 2.7 mM, Na2HPO4 8.1 mM, KH2PO4 1.5 mM, pH 7.4) in 96-well plate format by HPLC-UV/VIS analysis. The test compound was prepared at 200 μM in PBS from a 10 mM DMSO stock solution. The final DMSO concentration was 2%. The PBS buffer samples were mixed thoroughly followed by incubation at room temperature for 24 h. At the end of the incubation, the PBS buffer samples were centrifuged and supernatants analyzed by HPLC. The aqueous solubility (μM) of the test compound in PBS was determined by comparing the peak area of the principal peak in the calibration standard (200 μM) with the peak area of the corresponding peak in each of the PBS samples. The range of the assay was approximately 0.5 μM to 200 μM. The reference compounds used in each assay were metoprolol, rifampicin, ketoconazole, phenytoin, haloperidol, simvastatin, diethylstilbestrol, and tamoxifen ranking from fully soluble (200 μM) to poorly soluble (<1 μM).

As usually defined, the solubility is how much of the substance goes into solution per volume. Lower therefore signals little dissolved substance. With `CC[C@@H](NC(=O)N1C(=O)[C@H](Cc2ccnc(N)c2)[C@H]1C(=O)N(C)c1nccn1C)c1cccc(Cl)c1` [Compound 1-35, (2S,3R)-3-((2-aminopyridin-4-yl)methyl)-N2-(1-methyl-1H-imidazol-2-yl)-N1-((R)-1-(3-chlorophenyl)propyl)-N2-methyl-4-oxoazetidine-1,2-dicarboxamide], the “Ratio: Trypsin/FXIa” value in data set [1] is recorded as “G (“G” indicates 1-100)”. Also, the half-life at 2 μM in data set [2] was 1.02 to 2 h. Besides, the “Ratio: Thrombin/FXIa” value in data set [3] was “H (“H” indicates 101-1000)”. Also, the fraction unbound at 4 h, 10 μM in data set [4] was in the range of 0.1 to 0.5. Moreover, the solubility at 24 h in data set [5] was more than 100 µM.

For `CC[C@@H](NC(=O)N1C(=O)[C@H](Cc2ccnc(NC)c2)[C@H]1C(=O)N(C)c1nccn1C)c1cccc(Cl)c1` [Compound 1-41, (2S,3R)-3-((2-methylaminopyridin-4-yl)methyl)-N2-(1-methyl-1H-imidazol-2-yl)-N1-((R)-1-(3-chlorophenyl)propyl)-N2-methyl-4-oxoazetidine-1,2-dicarboxamide], the “Ratio: Trypsin/FXIa” value in data set [1] is “G (“G” indicates 1-100)”. The half-life at 2 μM in data set [2] was in the range of 1.02 to 2 h. Moreover, the “Ratio: Thrombin/FXIa” value in data set [3] is reported as “H (“H” indicates 101-1000)”. Further, the fraction unbound at 4 h, 10 μM in data set [4] lay within 0.1 to 0.5. In addition, the solubility at 24 h in data set [5] is more than 100 µM.

Turning to `CC[C@@H](NC(=O)N1C(=O)[C@H](Cc2cc(C)nc(N)c2)[C@H]1C(=O)N(C)c1nccn1C)c1cccc(Cl)c1` [Compound 1-43, (2S,3R)-3-((2-amino-6-methylpyridin-4-yl)methyl)-N2-(1-methyl-1H-imidazol-2-yl)-N1-((R)-1-(3-chlorophenyl)propyl)-N2-methyl-4-oxoazetidine-1,2-dicarboxamide], in data set [1], the “Ratio: Trypsin/FXIa” value is on record as “G (“G” indicates 1-100)”. Besides, in data set [2], the half-life at 2 μM was 2.02 to 4 h. The “Ratio: Thrombin/FXIa” value in data set [3] was “H (“H” indicates 101-1000)”. Besides, the fraction unbound at 4 h, 10 μM in data set [4] is 0.1 to 0.5. In addition, the solubility at 24 h in data set [5] was more than 100 µM.

As for `CC[C@@H](NC(=O)N1C(=O)[C@H](Cc2cc(C)nc(NC)c2)[C@H]1C(=O)N(C)c1nccn1C)c1ccccc1` [Compound 1-45, (2S,3R)-3-((2-methylamino-6-methylpyridin-4-yl)methyl)-N2-(1-methyl-1H-imidazol-2-yl)-N1-((R)-1-phenylpropyl)-N2-methyl-4-oxoazetidine-1,2-dicarboxamide], the “Ratio: Trypsin/FXIa” value in data set [1] is listed as “G (“G” indicates 1-100)”. Also, in data set [2], the half-life at 2 μM is 2.02 to 4 h. The “Ratio: Thrombin/FXIa” value in data set [3] is recorded as “H (“H” indicates 101-1000)”. For the same compound, the fraction unbound at 4 h, 10 μM in data set [4] is 0.1 to 0.5. The solubility at 24 h in data set [5] was more than 100 µM.

With `CC[C@@H](NC(=O)N1C(=O)[C@H](Cc2cc(C)nc(NC)c2)[C@H]1C(=O)N(C)c1nccn1C)c1cccc(Cl)c1` [Compound 1-46, (2S,3R)-3-((2-methylamino-6-methylpyridin-4-yl)methyl)-N2-(1-methyl-1H-imidazol-2-yl)-N1-((R)-1-(3-chlorophenyl)propyl)-N2-methyl-4-oxoazetidine-1,2-dicarboxamide], the “Ratio: Trypsin/FXIa” value in data set [1] was “G (“G” indicates 1-100)”. Moreover, the half-life at 2 μM in data set [2] fell in the range of 1.02 to 2 h. For the same compound, in data set [3], the “Ratio: Thrombin/FXIa” value is listed as “H (“H” indicates 101-1000)”. Besides, the fraction unbound at 4 h, 10 μM in data set [4] fell in the range of 0.05 to 0.09. Besides, the solubility at 24 h in data set [5] was more than 100 µM.

Turning to `CC[C@@H](NC(=O)N1C(=O)[C@H](Cc2ccnc(N)c2)[C@H]1C(=O)N(C)c1ccn(C)n1)C1CCCCC1` [Compound 1-47, (2S,3R)-3-((2-aminopyridin-4-yl)methyl)-N2-(1-methyl-1H-pyrazol-3-yl)-N1-((R)-1-cyclohexylpropyl)-N2-methyl-4-oxoazetidine-1,2-dicarboxamide], in data set [1], the “Ratio: Trypsin/FXIa” value is on record as “G (“G” indicates 1-100)”. Besides, in data set [2], the half-life at 2 μM is 1.02 to 2 h. Further, the “Ratio: Thrombin/FXIa” value in data set [3] is given as “H (“H” indicates 101-1000)”. Also, the fraction unbound at 4 h, 10 μM in data set [4] is 0.05 to 0.09. In data set [5], this compound returned a solubility at 24 h of more than 100 µM.

`C[C@@H](NC(=O)N1C(=O)[C@H](Cc2ccnc(N)c2)[C@H]1C(=O)N(C)c1ccn(C)n1)C1CCCCC1` [Compound 1-50, (2S,3R)-3-((2-aminopyridin-4-yl)methyl)-N2-(1-methyl-1H-pyrazol-3-yl)-N1-((R)-1-cyclohexylethyl)-N2-methyl-4-oxoazetidine-1,2-dicarboxamide]: the “Ratio: Trypsin/FXIa” value in data set [1] is reported as “G (“G” indicates 1-100)”. The half-life at 2 μM in data set [2] was 1.02 to 2 h. The “Ratio: Thrombin/FXIa” value in data set [3] was “H (“H” indicates 101-1000)”. Further, in data set [4], the fraction unbound at 4 h, 10 μM fell in the range of 0.1 to 0.5. Moreover, the solubility at 24 h in data set [5] was more than 100 µM.

For the compound `CC[C@@H](NC(=O)N1C(=O)[C@H](Cc2cc(C)nc(N)c2)[C@H]1C(=O)N(C)c1nccn1C)c1ccccc1` [Compound 1-51, (2S,3R)-3-((2-amino-6-methylpyridin-4-yl)methyl)-N2-(1-methyl-1H-imidazol-2-yl)-N1-((R)-1-phenylpropyl)-N2-methyl-4-oxoazetidine-1,2-dicarboxamide], in data set [1], the “Ratio: Trypsin/FXIa” value is “G (“G” indicates 1-100)”. The half-life at 2 μM in data set [2] is more than 4 h. Moreover, the “Ratio: Thrombin/FXIa” value in data set [3] is “H (“H” indicates 101-1000)”. In addition, in data set [4], the fraction unbound at 4 h, 10 μM lay within 0.1 to 0.5. Besides, the solubility at 24 h in data set [5] was more than 100 µM.

`CC[C@@H](NC(=O)N1C(=O)[C@H](Cc2ccnc(N)c2)[C@H]1C(=O)N(C)c1nccn1C)C1CCCCC1` [Compound 1-55, (2S,3R)-3-((2-aminopyridin-4-yl)methyl)-N2-(1-methyl-1H-imidazol-2-yl)-N1-((R)-1-cyclohexylpropyl)-N2-methyl-4-oxoazetidine-1,2-dicarboxamide]: the “Ratio: Trypsin/FXIa” value in data set [1] was “G (“G” indicates 1-100)”. For the same compound, in data set [2], the half-life at 2 μM was in the range of 1.02 to 2 h. The “Ratio: Thrombin/FXIa” value in data set [3] is “H (“H” indicates 101-1000)”. In addition, the fraction unbound at 4 h, 10 μM in data set [4] lay in the range of 0.1 to 0.5. For the same compound, the solubility at 24 h in data set [5] was more than 100 µM.

For the compound `CC(C)[C@@H](NC(=O)N1C(=O)[C@H](Cc2ccnc(N)c2)[C@H]1C(=O)N(C)c1ccn(C)n1)C1CCCCC1` [Compound 1-57, (2S,3R)-3-((2-aminopyridin-4-yl)methyl)-N2-(1-methyl-1H-pyrazol-3-yl)-N1-((R)-1-cyclohexyl-2-methylpropyl)-N2-methyl-4-oxoazetidine-1,2-dicarboxamide], the “Ratio: Trypsin/FXIa” value in data set [1] was “G (“G” indicates 1-100)”. Further, in data set [2], the half-life at 2 μM was less than 1 h. Also, the “Ratio: Thrombin/FXIa” value in data set [3] was “H (“H” indicates 101-1000)”. For the same compound, in data set [4], the fraction unbound at 4 h, 10 μM was less than 0.05. The compound also displayed a solubility at 24 h in data set [5] of 10 to 100 µM (≈ 4.96 to 49.6 µg/mL).

Turning to `CN(C(=O)[C@@H]1[C@@H](Cc2ccnc(N)c2)C(=O)N1C(=O)N[C@@H](C1CCCCC1)C1CC1)c1ccn(C)n1` [Compound 1-58, (2S,3R)-3-((2-aminopyridin-4-yl)methyl)-N2-(1-methyl-1H-pyrazol-3-yl)-N1-((R)-cyclohexyl-cyclopropylmethyl)-N2-methyl-4-oxoazetidine-1,2-dicarboxamide], the “Ratio: Trypsin/FXIa” value in data set [1] was “G (“G” indicates 1-100)”. Further, the half-life at 2 μM in data set [2] was less than 1 h. The “Ratio: Thrombin/FXIa” value in data set [3] is recorded as “H (“H” indicates 101-1000)”. Moreover, the fraction unbound at 4 h, 10 μM in data set [4] fell in the range of 0.05 to 0.09. For the same compound, the solubility at 24 h in data set [5] was more than 100 µM.
